Laboratory results: paper PMC11511665 (2024)

Tests used:
[1] = tested on: Clivia (R8 aptamer, GAAA tetraloop) (RNA, aptamer) GGAAGAUUGUAAACAUGCCGAAAGGCAGACACUUCC; experiment: X-ray crystallography; conditions: Mg2+ (0.05 M MgCl2); 0.1 M HEPES pH 7.5, 30% PEG MME 550, 16 °C
[2] = tested on: Clivia (R8 aptamer, GAAA tetraloop) (RNA, aptamer) GGAAGAUUGUAAACAUGCCGAAAGGCAGACACUUCC; experiment: X-ray crystallography, 1.6 Å; conditions: Mg2+ (0.05 M MgCl2); 0.1 M HEPES pH 7.5, 30% PEG MME 550, 16 °C
[3] = tested on: M5 (U8C/A29G) (RNA, aptamer) GGAAGAUCGUAAACAUGCCGAAAGGCAGGCACUUCC; experiment: fluorescence activation; conditions: 100 mM KCl, 5 mM MgCl2; 40 mM HEPES pH 7.4; 1 μM fluorophore, 5 μM RNA
[4] = tested on: M4 (A11U/A12U/A13U) (RNA, aptamer) GGAAGAUUGUUUUCAUGCCGAAAGGCAGACACUUCC; experiment: fluorescence activation; conditions: 100 mM KCl, 5 mM MgCl2; 40 mM HEPES pH 7.4; 1 μM fluorophore, 5 μM RNA
[5] = tested on: U7A (RNA, aptamer) GGAAGAAUGUAAACAUGCCGAAAGGCAGACACUUCC; experiment: fluorescence titration, Hill fit; conditions: 100 mM KCl, 5 mM MgCl2; 40 mM HEPES pH 7.4; 20 nM RNA
[6] = tested on: Clivia_IV (IV_R8) (RNA, aptamer) GGAAGAUUGUAAACAGCGAGAUUGUAAACAGCGAGAUUGUAAACAGCGAGAUUGUAAACAUGCCGAAAGGCAGACACUCGCGACACUCGCGACACUCGCGACACUUUC; experiment: fluorescence activation; conditions: 100 mM KCl, 5 mM MgCl2; 40 mM HEPES pH 7.4
[7] = tested on: Clivia_II (II_R8) (RNA, aptamer) GGAAGAUUGUAAACAGCGAGAUUGUAAACAUGCCGAAAGGCAGACACUCGCGACACUUUC; experiment: fluorescence activation; conditions: 100 mM KCl, 5 mM MgCl2; 40 mM HEPES pH 7.4
[8] = tested on: M1 (delete U7; Del-U7) (RNA, aptamer) GGAAGAUGUAAACAUGCCGAAAGGCAGACACUUCC; experiment: fluorescence activation; conditions: 100 mM KCl, 5 mM MgCl2; 40 mM HEPES pH 7.4; 1 μM fluorophore, 5 μM RNA
[9] = tested on: U7G (RNA, aptamer) GGAAGAGUGUAAACAUGCCGAAAGGCAGACACUUCC; experiment: fluorescence titration, Hill fit; conditions: 100 mM KCl, 5 mM MgCl2; 40 mM HEPES pH 7.4; 20 nM RNA
[10] = tested on: M13 (add 2bp in P2; Ad-2bp-P2) (RNA, aptamer) GGAAGAUUGUAAACAUGCCGCGAAAGCGGCAGACACUUCC; experiment: fluorescence titration, Hill fit; conditions: 100 mM KCl, 5 mM MgCl2; 40 mM HEPES pH 7.4; 20 nM RNA
[11] = tested on: M10 (delete 2bp in P1; Del-2bp-P1) (RNA, aptamer) GAGAUUGUAAACAUGCCGAAAGGCAGACACUC; experiment: fluorescence titration, Hill fit; conditions: 100 mM KCl, 5 mM MgCl2; 40 mM HEPES pH 7.4; 20 nM RNA
[12] = tested on: M2 (A11G/A12G/A13G) (RNA, aptamer) GGAAGAUUGUGGGCAUGCCGAAAGGCAGACACUUCC; experiment: fluorescence activation; conditions: 100 mM KCl, 5 mM MgCl2; 40 mM HEPES pH 7.4; 1 μM fluorophore, 5 μM RNA
[13] = tested on: M7 (A15G/G28A) (RNA, aptamer) GGAAGAUUGUAAACGUGCCGAAAGGCAAACACUUCC; experiment: fluorescence activation; conditions: 100 mM KCl, 5 mM MgCl2; 40 mM HEPES pH 7.4; 1 μM fluorophore, 5 μM RNA
[14] = tested on: Clivia_V (V_R8) (RNA, aptamer) GGAAGAUUGUAAACAGCGAGAUUGUAAACAGCGAGAUUGUAAACAGCGAGAUUGUAAACAGCGAGAUUGUAAACAUGCCGAAAGGCAGACACUCGCGACACUCGCGACACUCGCGACACUCGCGACACUUUC; experiment: fluorescence activation; conditions: 100 mM KCl, 5 mM MgCl2; 40 mM HEPES pH 7.4
[15] = tested on: Clivia (R8 aptamer, GAAA tetraloop) (RNA, aptamer) GGAAGAUUGUAAACAUGCCGAAAGGCAGACACUUCC; experiment: fluorescence titration, Hill fit; conditions: 100 mM KCl, 5 mM MgCl2; 40 mM HEPES pH 7.4; 20 nM RNA
[16] = tested on: M9 (A15C) (RNA, aptamer) GGAAGAUUGUAAACCUGCCGAAAGGCAGACACUUCC; experiment: fluorescence activation; conditions: 100 mM KCl, 5 mM MgCl2; 40 mM HEPES pH 7.4; 1 μM fluorophore, 5 μM RNA
[17] = tested on: Clivia_VI (VI_R8) (RNA, aptamer) GGAAGAUUGUAAACAGCGAGAUUGUAAACAGCGAGAUUGUAAACAGCGAGAUUGUAAACAGCGAGAUUGUAAACAGCGAGAUUGUAAACAUGCCGAAAGGCAGACACUCGCGACACUCGCGACACUCGCGACACUCGCGACACUCGCGACACUUUC; experiment: fluorescence activation; conditions: 100 mM KCl, 5 mM MgCl2; 40 mM HEPES pH 7.4
[18] = tested on: Clivia_III (III_R8) (RNA, aptamer) GGAAGAUUGUAAACAGCGAGAUUGUAAACAGCGAGAUUGUAAACAUGCCGAAAGGCAGACACUCGCGACACUCGCGACACUUUC; experiment: X-ray crystallography; conditions: 0.2 M MgCl2; 20% PEG 3350, 16 °C
[19] = tested on: M11 (add 2bp in P1; Ad-2bp-P1) (RNA, aptamer) GGGGAAGAUUGUAAACAUGCCGAAAGGCAGACACUUCCCC; experiment: fluorescence titration, Hill fit; conditions: 100 mM KCl, 5 mM MgCl2; 40 mM HEPES pH 7.4; 20 nM RNA
[20] = tested on: M8 (G28U) (RNA, aptamer) GGAAGAUUGUAAACAUGCCGAAAGGCAUACACUUCC; experiment: fluorescence activation; conditions: 100 mM KCl, 5 mM MgCl2; 40 mM HEPES pH 7.4; 1 μM fluorophore, 5 μM RNA
[21] = tested on: M6 (U8A/A29U) (RNA, aptamer) GGAAGAUAGUAAACAUGCCGAAAGGCAGUCACUUCC; experiment: fluorescence activation; conditions: 100 mM KCl, 5 mM MgCl2; 40 mM HEPES pH 7.4; 1 μM fluorophore, 5 μM RNA
[22] = tested on: M3 (A11C/A12C/A13C) (RNA, aptamer) GGAAGAUUGUCCCCAUGCCGAAAGGCAGACACUUCC; experiment: fluorescence activation; conditions: 100 mM KCl, 5 mM MgCl2; 40 mM HEPES pH 7.4; 1 μM fluorophore, 5 μM RNA
[23] = tested on: M12 (delete 2bp in P2; Del-2bp-P2) (RNA, aptamer) GGAAGAUUGUAAACACCGAAAGGGACACUUCC; experiment: fluorescence titration, Hill fit; conditions: 100 mM KCl, 5 mM MgCl2; 40 mM HEPES pH 7.4; 20 nM RNA
[24] = tested on: U7C (RNA, aptamer) GGAAGACUGUAAACAUGCCGAAAGGCAGACACUUCC; experiment: fluorescence titration, Hill fit; conditions: 100 mM KCl, 5 mM MgCl2; 40 mM HEPES pH 7.4; 20 nM RNA

CN1C(=O)/C(=C/c2cc(F)c(O)c(F)c2)N=C1/C=C/c1ccc(C#N)cc1
binding [1]: yes

CN1C(=O)/C(=C/c2cc(F)c(O)c(F)c2)N=C1/C=C/c1ccc(O)cc1
binding [1]: yes

CN1C(=O)/C(=C/c2cc(F)c(O)c(F)c2)N=C1/C=C/c1ccccc1
binding [1]: yes

CN1C(=O)/C(=C/c2ccc(N(C)CCO)cc2)N=C1/C=C/c1ccccc1
binding [2]: yes | binding [3]: no | binding [4]: no | Kd [5]: 107 ± 12 nM | binding [6]: yes | binding [7]: yes | binding [8]: no | Kd [9]: 152 ± 12 nM | Kd [10]: 55 nM | Kd [11]: 84 nM | binding [12]: no | binding [13]: no | binding [14]: yes | Kd [15]: 71 ± 15 nM | binding [16]: no | binding [17]: yes | binding [18]: yes | Kd [19]: 61 nM | binding [20]: weak | binding [21]: no | binding [22]: no | Kd [23]: 44 nM | Kd [24]: 46 ± 3 nM
